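Following 48 hours of exposure in 96-well plates, responses at five concentrations were used to interpolate endpoints linearly. TGI is the concentration that stops growth completely.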

Results on 16 compounds are retold here after PubChem BioAssay (NCI).

Test systems include A549 NSCLC; COLO 205 colon; ACHN renal; SF-539 CNS; HL-60(TB) leukemia; A498 renal; KM12 colon; SW-620 colon.
What all share (test): NCI anticancer screen, dose series, 48 h

Consider `COc1cc(-c2cn(S(=O)(=O)c3ccc(C)cc3)c3ccccc23)nc(-c2cn(S(=O)(=O)c3ccc(C)cc3)c3ccccc23)n1`, for which the TGI was > 48.8 µM in the assay on A549 NSCLC; 3.31 µM in the assay with COLO 205 colon; > 100 µM with ACHN renal; 0.592 µM with SF-539 CNS; 5.24 µM with HL-60(TB) leukemia; > 100 µM in the assay with A498 renal. In addition, the TGI was 8.44 µM in the assay on KM12 colon and > 56.9 µM in the assay on SW-620 colon.

Regarding `Cc1c(NC(=S)NN)c(=O)n(-c2ccccc2)n1C`, the TGI in the assay on A549 NSCLC, in the assay with COLO 205 colon, in the assay on SF-539 CNS, in the assay on HL-60(TB) leukemia, in the assay with A498 renal and in the assay with KM12 colon was > 100 µM throughout. Also, in the assay on SW-620 colon, the TGI is > 100 µM.

Take `COc1cc(Cc2cc3c(c(C(=O)O)c2Br)OCO3)cc(OC)c1OC`: the TGI with A549 NSCLC is > 100 µM; with COLO 205 colon, > 100 µM; in the assay on ACHN renal it was > 100 µM; in the assay with SF-539 CNS, 91.1 µM; with HL-60(TB) leukemia it was 62.2 µM; in the assay on A498 renal, > 100 µM. Besides, the TGI in the assay with KM12 colon and in the assay on SW-620 colon was > 100 µM each time.

With `O=C1c2c(Cl)c(Cl)c(Cl)c(Cl)c2C(=O)N1CCN(c1c(Cl)ssc1=O)c1c(Cl)ssc1=O`, the TGI in the assay on A549 NSCLC was > 100 µM; with COLO 205 colon it was 35 µM; in the assay with ACHN renal it was 32.9 µM; with SF-539 CNS, 35.4 µM; with HL-60(TB) leukemia it was > 100 µM; in the assay with A498 renal it was > 100 µM. Moreover, the TGI is > 100 µM in the assay on KM12 colon and 61.9 µM with SW-620 colon.

`O=C(/C=C1\N=C(c2ccccc2)N(c2nc3ccc(Sc4ccccc4)cc3[nH]2)C1=O)/C=C/c1ccccc1`: the TGI with A549 NSCLC is > 100 µM; in the assay with COLO 205 colon, 30.6 µM; in the assay on ACHN renal, > 100 µM; with HL-60(TB) leukemia, 54.1 µM; with A498 renal it was > 100 µM; with KM12 colon, > 100 µM. In addition, the TGI in the assay on SW-620 colon is > 100 µM.

Take `O=c1c2cc(-c3ccccc3)sc2nc2n1N=C(c1ccccc1)CS2`: the TGI was > 100 µM in the assay on A549 NSCLC; > 100 µM with COLO 205 colon; 32.5 µM in the assay on ACHN renal; 89.1 µM with SF-539 CNS; > 100 µM with HL-60(TB) leukemia; 71.9 µM with A498 renal. Besides, the TGI with KM12 colon and in the assay with SW-620 colon was > 100 µM in each case.

`COc1cc2c(/C=C3/C(=O)N(C)c4ccccc43)c(Cl)[nH]c2cc1C`: the TGI was 17 µM in the assay with A549 NSCLC; 0.579 µM with COLO 205 colon; > 55.9 µM with ACHN renal; 0.0807 µM with SF-539 CNS; 0.666 µM with HL-60(TB) leukemia; > 50.6 µM with A498 renal. Also, the TGI in the assay on SW-620 colon was > 100 µM.

As to `CC1(C)CC(=O)C(CCC(=O)/C=C/c2ccccc2)C(=O)C1`, the TGI in the assay on A549 NSCLC, in the assay with COLO 205 colon, in the assay with ACHN renal, with SF-539 CNS, in the assay on HL-60(TB) leukemia and in the assay on A498 renal was > 100 µM throughout. Also, the TGI in the assay with KM12 colon and in the assay on SW-620 colon was > 100 µM each time.

Regarding `N#Cc1c(N2CCCC2)nsc1NCc1ccccc1`, the TGI with A549 NSCLC, in the assay with COLO 205 colon, with ACHN renal, in the assay with SF-539 CNS, in the assay with HL-60(TB) leukemia and in the assay on A498 renal was > 100 µM each time. Moreover, the TGI in the assay on KM12 colon and with SW-620 colon was > 100 µM throughout.

Take `CCC(C#N)(c1ccccc1)N(CCc1ccccc1)C(=O)c1ccccc1` (stereo not given): the TGI was > 100 µM in the assay with A549 NSCLC; > 100 µM with COLO 205 colon; > 100 µM with ACHN renal; 34.8 µM with SF-539 CNS; > 100 µM in the assay with HL-60(TB) leukemia; 79.6 µM with A498 renal. Besides, the TGI in the assay with KM12 colon and in the assay with SW-620 colon was > 100 µM in each case.

Turning to `O=P1(C(O)/C=C/c2ccccc2)N(Cc2ccccc2)[C@H](c2ccccc2)[C@@H](c2ccccc2)N1Cc1ccccc1` (stereo not given in full), the TGI in the assay with A549 NSCLC is > 100 µM; in the assay on COLO 205 colon, 31.8 µM; with ACHN renal, > 95.4 µM; in the assay on SF-539 CNS, > 100 µM; in the assay on HL-60(TB) leukemia, 36.3 µM; with A498 renal it was > 100 µM. For the same compound, the TGI in the assay on KM12 colon and with SW-620 colon was > 100 µM each time.

In the case of `CC(=O)Nc1ccc(Nc2cc(=O)[nH]c(=O)[nH]2)cc1`, the TGI with A549 NSCLC, with COLO 205 colon, with ACHN renal, with SF-539 CNS, in the assay with HL-60(TB) leukemia and in the assay with A498 renal was > 100 µM each time. The TGI in the assay on KM12 colon and in the assay with SW-620 colon was > 100 µM throughout.

On to `CC(=N\N)/C(C)=N/N=C(C)/C(C)=N/N=C(C)/C(C)=N/N=C(C)/C(C)=N/N`, for which the TGI in the assay with A549 NSCLC, in the assay on COLO 205 colon, in the assay with SF-539 CNS, with HL-60(TB) leukemia, in the assay with A498 renal and in the assay with KM12 colon was > 100 µM throughout. For the same compound, the TGI with SW-620 colon is > 100 µM.

For `Cc1ccc(S(=O)(=O)N2CCCN(S(=O)(=O)c3ccc(C)cc3)CCN(S(=O)(=O)c3ccc(C)cc3)CCCSCC2)cc1`, the TGI with A549 NSCLC, in the assay with COLO 205 colon, with ACHN renal, in the assay with SF-539 CNS, with HL-60(TB) leukemia and with A498 renal was > 100 µM throughout. In addition, the TGI with SW-620 colon is > 100 µM.

With `COC(=O)c1c2c(cc3c1CC1(Cc4cc5c(c(C=O)c4C1)CCCC5)C3)CCCC2` (stereo not given), the TGI in the assay with A549 NSCLC is > 100 µM; in the assay with COLO 205 colon, 36.6 µM; in the assay with ACHN renal it was > 100 µM; with SF-539 CNS it was > 100 µM; with HL-60(TB) leukemia, 59.9 µM; in the assay on A498 renal it was > 100 µM.

Regarding `CN(C)C(Cc1cnc[nH]1)C(=O)N1CCCC1C(N)=O` (stereo not given), the TGI in the assay on A549 NSCLC is > 100 µM; in the assay with COLO 205 colon, > 100 µM; in the assay with ACHN renal it was > 100 µM; in the assay on HL-60(TB) leukemia it was > 100 µM; with A498 renal it was 98 µM; with KM12 colon, > 100 µM. In addition, in the assay on SW-620 colon, the TGI was > 100 µM.
